Here are results for eleven compounds from patent US20080227757A1, “Formulation for dermal application” (priority 2005, published 2008).

The nature of data set [1]: Octanol-water distribution coefficient (log P), lipophily. The protocol: The lipophily value P gives low lipophility at a low value of the logarithm of P (log P), and a high value of the log P gives high lipophily. The distribution coefficient P is measured at pH 7.4 and 21° C. in octanol water.
A short description of data set [2]: Permeation of active ingredient from formulations through isolated human Stratum corneum (modified Franz cell). To be noted: active ingredient in the inventive formulation.
Method: To determine the permeation of an active ingredient from the inventive formulation compared to conventional formulations containing active ingredients pharmaceutical preparations containing 5-aminolevulinic acid were tested in vitro on isolated human skin.
Human Stratum corneum, originating from biopsies of plastic operations, was used as isolated human skin. Following the biopsy subcutaneous fat was removed and the skin was frozen in liquid nitrogen, then stored at −25° C. After gradual thawing the Stratum corneum was isolated by trypsination on filter paper, and impregnated with an aqueous 2% trypsin solution. After incubation at 37° C. for 24 h the Stratum corneum could be lifted off, incubated in a 0.01% aqueous solution trypsin inhibitor and then washed several times in water. This isolated horny layer was dried and stored at room temperature in the desiccator. For permeation examinations a modified Franz cell was used, the compartments of which were separated off through the Stratum corneum. Pretreatment of the Stratum corneum is done by total hydration in water and placement on a polycarbonate filter (Isopor membrane filter, type TMTP, 5.0 μm, Millipore) to boost mechanical stability. The donor compartment was filled with inventive or respectively comparative formulation containing 5-aminolevulinic acid, whereby 5-aminolevulinic acid at 10% by weight was contained in the formulations.
The preparation containing 5-aminolevulinic acid, procurable according to Example 2, was tested for permeation as inventive preparation, as compared to a formulation with conventional cream base according to the German Pharmacopoeia (70 parts water, 30 parts hydrophilic salve from 30 parts emulsifying cetylstearyl alcohol (type A), 35 parts viscid paraffin and 35 parts soft Vaseline), and in comparison to a formulation in dolgit microgel (5% by weight ibuprofen, in 2-propanol, dimethyl isosorbide, poloxamer, medium-chain triglycerides, lavender oil, neroli oil and water).
After application the quantity of active ingredient permeated through the skin was measured.

For the compound `CCCCOC(=O)CCC(=O)CN` [5-ALA-butylester, 5-aminolevulinic acid butyl ester], the logP in data set [1] (octanol/water, pH 7.4) amounted to 1.42.

Turning to `NCC(=O)CCC(=O)OC1CCCCC1` [5-ALA-cyclohexylester], in data set [1] (octanol water, pH 7.4, 21° C.), the “log P” value is recorded as 1.494.

Turning to `CCOC(=O)CCC(=O)CN` [5-ALA-ethylester], in data set [1] (octanol water, pH 7.4, 21° C.), the “log P” value came out at 0.8411.

`CCCCCCOC(=O)CCC(=O)CN` [5-ALA-hexylester]: the “log P” value in data set [1] (octanol water, pH 7.4, 21° C.) is on record as 1.839.

With `COC(=O)CCC(=O)CN` [5-ALA-methylester, methyl ester of 5-aminolevulinic acid], the “log P” value in data set [1] (pH 7.4) is recorded as −0.9423.

In the case of `CCCCCCCCOC(=O)CCC(=O)CN` [5-ALA-octylester], the “log P” value in data set [1] (octanol water, pH 7.4, 21° C.) worked out at 2.6199.

The compound `NCC(=O)CCC(=O)O` [Example 5-ALA, 5-aminolevulinic acid] showed a logP in data set [1] (octanol/water, pH 7.4) of -1.52.

`CC(=O)Oc1ccccc1C(=O)O` [acetylsalicylic acid] gave a logP in data set [1] (octanol/water, pH 7.4) of -1.15. Further, the “permeation of the active ingredient from the inventive formulation through the human Stratum corneum” value (shortened to “permeation of the active ingredient”) in data set [2] is reported as “improvement in permeation”.

`Clc1ccccc1C(c1ccccc1)(c1ccccc1)n1ccnc1` [clotrimazole] registered a logP in data set [1] (pH 7.4) of 4.1. The “permeation of the active ingredient” value in data set [2] is given as “improvement in permeation”.

`CC(=O)OCC(=O)[C@@]1(O)CC[C@H]2[C@@H]3CCC4=CC(=O)CC[C@]4(C)[C@H]3[C@@H](O)C[C@@]21C` [hydrocortisone acetate] displayed a logP in data set [1] (pH 7.4) of 2.18. Moreover, the “permeation of the active ingredient” value in data set [2] was “improvement in permeation”.

As to `CN(C/C=C/C#CC(C)(C)C)Cc1cccc2ccccc12` [terbinafine], in data set [1] (octanol/water, pH 7.4), the logP is 3.3. Also, the “permeation of the active ingredient” value in data set [2] was “improvement in permeation”.
